From publication PMC6720901, “Psoromic Acid, a Lichen-Derived Molecule, Inhibits the Replication of HSV-1 and HSV-2, and Inactivates HSV-1 DNA Polymerase: Shedding Light on Antiherpetic Properties” (Molecules, 2019)
Like-named read-outs stand apart in the source and are kept apart here.

What was measured:
[1] = test system: HSV-1 strain KOS; assay: Anti-HSV-1 plaque reduction assay in infected Vero cells; assay type: cell-based, herpes simplex virus type 1 (HSV-1); conditions: for IC50: 72 h; for SI (CC50/IC50): selectivity index, Vero CC50 / HSV-1 IC50
Method: Vero cells were infected with HSV-1 strain KOS (an ACV-sensitive strain) obtained from MUH, Prague, Czech Republic and propagated in Vero cells. Viral stocks were then titrated based on plaque forming unit (PFU) count by plaque assay as previously described. Viral stocks were stored at −80^◦C for further use.
The inhibitory activity against the replication of HSV-1 was evaluated using a plaque reduction assay as previously described. ACV was used as a reference drug. Briefly, cell monolayers were infected with 100 PFU of HSV-1 in MEM containing 1.5% carboxymethyl cellulose (CMC, Sigma-Aldrich, Berlin, Germany) in the presence or absence of test compounds at different concentrations. Afterward, the cells were subjected to incubation for 72 h at 37 °C, then fixed and stained using naphthol blue-black (Sigma-Aldrich, Berlin, Germany). Subsequently, the plaques were counted. IC50 values (concentrations of test compounds required to decrease the number of plaques by 50%) were determined as compared with untreated control cells. A selectivity index (SI) value was calculated as the ratio CC50/IC50.

[2] = Cytotoxicity on Vero cells by neutral red dye-uptake assay; assay type: cell-based; conditions: African green monkey, Vero cell monolayers, neutral red dye uptake (Table 1)
Method: The cytotoxic effect of standard PA (purity >98%; kindly obtained from University of Chemistry and Technology Prague, Prague, Czech Republic), PA in combination with ACV (Sigma-Aldrich, Berlin, Germany) as well as standard ACV on Vero cells was assessed using the neutral red dye-uptake assay as previously described with slight modification. Briefly, the test compounds were dissolved in 0.2% dimethyl sulfoxide (DMSO). Further, stock solutions were prepared in deionized water and sterilized at a concentration of 620 μM. Vero cell monolayers cultivated in 96-well microtiter plates with two-fold serial dilutions of the test compounds were incubated for 48 h at 37°C in 5% CO2. After incubation, the morphological alterations of the treated cells were assessed using an inverted optical microscope (Leitz, Wetzlar, Germany) and the maximum non-toxic concentrations (MNTC) were determined. The concentrations of test substances that are necessary to decrease the cell viability by 50% (CC50) were assessed as compared with the untreated control cells. In order to acquire statistically relevant data for final evaluation, the cytotoxicity of test compounds was measured in at least three independent experiments conducted in duplicate.

[3] = target: T1, HSV-1 DNA polymerase (Human herpesvirus 1, UniProt P04292); assay: Radiolabeled nucleotide-based HSV-1 DNA polymerase inhibition assay; assay type: biochemical; conditions: for type of inhibition: ascertained with Cheng–Prusoff equation; for IC50: 37 °C, 30 min; for Ki: calculated by Cheng–Prusoff equation
T1 construct: HSV-1 DNA polymerase was extracted from HSV-1-infected Vero cells; made in house; host or cells: Vero cells infected with HSV-1 (KOS strain); virus-encoded native enzyme, purified on DEAE-cellulose and phosphate cellulose columns
Method: HSV-1 DNA polymerase was extracted from HSV-1-infected Vero cells following the procedure as previously designated. Briefly, Vero cells were infected with HSV-1 (KOS strain) at a multiplicity of infection (MOI) equal to 5.0 for 12 h. Afterward, the infected cells were lysed with a buffer containing 0.25 M potassium phosphate (pH = 7.5), 10 mM 2-mercaptoethanol (2-ME), 1mM EDTA, 0.5% Triton X-100, 0.5 mM phenylmethane sulfonylfluoride (PMSF), and 20% glycerol, and subsequently sonicated and centrifuged at 10,000× g for 10 min at 4 °C. The resulting supernatant was additionally centrifuged at 100,000× g for 90 min at 4 °C and the supernatant was dialyzed against 10 mM potassium phosphate (pH = 7.5) with 10 mM 2-ME, 1mM EDTA, and 20% glycerol. Then, the obtained material was eluted in two ion-exchange chromatography columns (DEAE-cellulose and phosphate cellulose) (Sigma-Aldrich, Prague, Czech Republic) supplemented with potassium phosphate ([…]) as previously described.
Extracted HSV-1 DNA polymerase was evaluated for its purity and possible contamination with cellular enzymes such as type B DNA polymerase (α and δ polymerases) using polyclonal antibodies raised against these cellular enzymes following the procedure as previously described. The confirmation of the purity of HSV-1 DNA polymerase was achieved by using a kinetic assay in the presence or absence of ammonium sulfate (100 mM; an inhibitor of possible contaminant cellular polymerases) following the previously reported protocol.
A radiolabeled nucleotide-based assay was used to evaluate the inhibitory properties of PA along with the standard drugs aphidicolin (a known competitive inhibitor of HSV-1 DNA polymerase with respect to dTTP incorporation; purchased from Sigma-Aldrich, Prague, Czech Republic with purity ≥98%) and ACV triphosphate (ACV-TP) (a known competitive inhibitor of HSV-1 DNA polymerase with respect to dGTP incorporation; obtained from Sierra Bioresearch (Tucson, AZ, USA) with purity >98%) against HSV-1 DNA polymerase based on the incorporation of dTTP as a substrate with some modifications. Briefly, the enzyme assay was performed following the first-order kinetics conditions, where the enzymatic reaction initiated by pre-incubating 3 U/mL of HSV-1 DNA polymerase with a mixture containing 50 mM Tris-HCl (pH = 8), MgCl2 (8 mM), DTT (0.5 mM), bovine serum albumin (0.5 µg/mL), ammonium sulfate (100 mM; an inhibitor of possible contaminant cellular polymerases), 100 µM of each nucleotide (dATP, dGTP, dCTP, and [^3H]-dTTP—0.5 µCi/nmol) (obtained from MUH, Prague, Czech Republic) and activated salmon-sperm DNA (12 µg/mL). […] [^3H]-dGTP—0.5 µCi/nmol (obtained from MUH, Prague, Czech Republic) was used when the enzymatic assay was performed with ACV-TP.
The obtained mixture was further incubated with the test compounds (at concentrations ranging from 0.1 to 3 µM) at 37 °C for 30 min and afterward, the reaction was stopped by adding trichloroacetic acid (TCA; 10%). The resulting radioactivity was adsorbed over GF/C fiberglass membranes (Whatman; Sigma-Aldrich, Berlin, Germany) and counted by liquid scintillation (Tri-Carb 2600, Packard Inc., Downers Grove, IL, USA). All measurements were conducted in triplicate and IC50 values were calculated by nonlinear regression. Ki values (inhibition constant; concentration required to produce half maximum inhibition) were calculated using the Cheng–Prusoff equation as previously described.

T1 sequence (P04292 whole entry): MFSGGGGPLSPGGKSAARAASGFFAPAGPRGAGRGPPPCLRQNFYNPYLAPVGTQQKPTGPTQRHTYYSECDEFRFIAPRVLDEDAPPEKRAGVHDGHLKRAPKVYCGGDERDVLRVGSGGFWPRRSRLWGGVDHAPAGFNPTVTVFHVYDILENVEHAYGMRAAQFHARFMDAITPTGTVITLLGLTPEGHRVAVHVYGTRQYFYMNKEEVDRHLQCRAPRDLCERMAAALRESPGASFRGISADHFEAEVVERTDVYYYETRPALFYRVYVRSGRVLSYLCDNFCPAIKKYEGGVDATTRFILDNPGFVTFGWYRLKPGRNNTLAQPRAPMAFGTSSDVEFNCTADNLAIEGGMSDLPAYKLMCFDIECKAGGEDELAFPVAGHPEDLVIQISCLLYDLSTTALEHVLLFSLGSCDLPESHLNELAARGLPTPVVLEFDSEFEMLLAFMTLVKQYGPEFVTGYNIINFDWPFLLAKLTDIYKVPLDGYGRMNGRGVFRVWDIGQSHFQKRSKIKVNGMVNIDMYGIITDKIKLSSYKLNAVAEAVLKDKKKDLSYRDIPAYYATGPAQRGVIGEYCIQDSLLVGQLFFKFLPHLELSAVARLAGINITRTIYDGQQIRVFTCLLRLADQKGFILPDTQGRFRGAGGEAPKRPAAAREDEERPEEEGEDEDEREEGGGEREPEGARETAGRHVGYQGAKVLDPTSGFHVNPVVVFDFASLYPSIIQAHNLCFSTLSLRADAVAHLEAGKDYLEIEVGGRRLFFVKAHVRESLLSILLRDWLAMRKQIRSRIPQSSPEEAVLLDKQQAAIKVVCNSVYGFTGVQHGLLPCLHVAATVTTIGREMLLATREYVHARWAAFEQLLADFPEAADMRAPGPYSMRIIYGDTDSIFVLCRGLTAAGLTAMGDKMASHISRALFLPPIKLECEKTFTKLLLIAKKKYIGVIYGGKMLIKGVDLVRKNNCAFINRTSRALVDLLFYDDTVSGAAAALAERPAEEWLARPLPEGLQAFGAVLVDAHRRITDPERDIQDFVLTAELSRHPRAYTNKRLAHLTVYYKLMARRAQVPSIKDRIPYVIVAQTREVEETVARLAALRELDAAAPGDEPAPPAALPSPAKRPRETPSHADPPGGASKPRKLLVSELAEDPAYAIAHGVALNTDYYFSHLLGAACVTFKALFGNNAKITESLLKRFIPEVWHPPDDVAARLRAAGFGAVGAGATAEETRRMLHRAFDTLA

With Nc1nc2c(ncn2COCCO)c(=O)[nH]1 [ACV, acyclovir] the IC50 ([1]; Human alphaherpesvirus 1, HSV-1 replication, plaque reduction, Vero cells, read-out: IC50) was 2600 ± 380 nM, the “SI (CC50/IC50)” value [1] was greater than 119.2 and the CC50 at 48 h [2] was greater than 310000 nM.
With Nc1nc2c(ncn2COCCOP(=O)(O)OP(=O)(O)OP(=O)(O)O)c(=O)[nH]1 [ACV-TP, acyclovir triphosphate] the type of inhibition [3] was “competitive inhibitors”, the IC50 ([3]; with respect to dGTP incorporation ([3H]-dGTP)) was 900 ± 630 nM and the Ki ([3]; with respect to dGTP incorporation) was 500 ± 340 nM.
For COc1cc(C(=O)O)c2c(c1C)OC(=O)c1c(C)cc(O)c(C=O)c1O2 [PA, Psoromic acid], the type of inhibition [3] was “competitive inhibitors”, the IC50 ([3]; with respect to dTTP incorporation ([3H]-dTTP)) was 700 ± 510 nM and the Ki ([3]; with respect to dTTP incorporation) was 300 ± 420 nM. For the same molecule, the IC50 ([1]; Human alphaherpesvirus 1, Vero) was 1900 ± 420 nM, the “SI (CC50/IC50)” value [1] was greater than 163.2 and the CC50 at 48 h [2] was greater than 310000 nM.
